Data from paper PMC9344462 (Journal of Medicinal Chemistry, 2022).
Where two headings read alike, the source gives them in different places.

How the values were obtained:
[1] = molecular target: PknG (kinase and rubredoxin domains) (Mycobacterium tuberculosis, UniProt P9WI73); assay: Intrinsic tryptophan fluorescence quenching; format: binding
[2] = test system: THP-1-derived macrophages
[3] = test system: Mtb H37Rv; format: cell-based, Mycobacterium tuberculosis H37Rv
[4] = test system: Mtb H37Rv; conditions: previous results ref 8; cited from earlier work

PknG (kinase and rubredoxin domains), sequence (P9WI73 74-405): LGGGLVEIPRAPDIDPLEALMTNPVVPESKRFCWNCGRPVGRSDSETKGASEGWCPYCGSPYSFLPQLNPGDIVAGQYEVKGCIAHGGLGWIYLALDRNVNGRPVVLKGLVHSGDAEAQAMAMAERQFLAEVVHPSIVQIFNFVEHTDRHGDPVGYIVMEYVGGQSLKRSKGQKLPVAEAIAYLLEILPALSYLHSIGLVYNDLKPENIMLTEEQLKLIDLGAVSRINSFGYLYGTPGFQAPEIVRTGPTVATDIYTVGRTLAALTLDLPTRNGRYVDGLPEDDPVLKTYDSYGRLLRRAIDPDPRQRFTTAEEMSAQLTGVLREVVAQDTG

NC(=O)c1c(N)c(C(=O)c2cccs2)n2ccccc12 [B3]
Kd [1]: 3.6 µM

NC(=O)c1c(N)c(C(=O)c2ccc(Cl)c(Cl)c2)n2ccccc12 [B4]
Kd [1]: 13 µM

CC(C)c1ccc(C(=O)c2c(N)c(C(N)=O)c3ccccn23)cc1 [T1]
effect on cell viability ([2]; 10 μM, 3, 24 and 48 h): none of the compounds showed adverse effects
Mtb H37Rv intracellular survival ([3]; 1 and 10 μM, 24 h and 48 h, […]): significant decrease

NC(=O)c1c(NC(=O)C2CC2)sc2c1CCCC2 [AX20017]
inhibitory activity on intracellular survival of Mtb within macrophage cells [4]: very similar inhibitory activity

NC(=O)c1c(N)c(C(=O)c2ccc(F)cc2)n2ccccc12 [B1]
effect on cell viability [2]: none of the compounds showed adverse effects
Mtb H37Rv intracellular survival [3]: significant decrease
